{
  "source": "patent US20210088529A1",
  "about": "“USE OF QUINALDINE RED AND DERIVATIVES THEREOF IN PREPARATION OF KIT FOR DETECTING AMYLOID FIBRILS” (Jilin University, priority 2019, published 2021)",
  "key": {"[1]": {"target": "T1, bovine insulin fibrils (Bos taurus, UniProt P01317)", "T1 sequence (P01317 25-54 limits assumed)": "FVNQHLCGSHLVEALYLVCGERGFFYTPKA", "T1 sequence (P01317 85-105 limits assumed)": "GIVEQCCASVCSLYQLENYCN", "experiment": "Fluorescence response (identification) of bovine insulin fibrils by the dye", "assay_type": "binding", "conditions": "for identification of bovine insulin fibril (fluorescence intensity, dye comparison): 0.05 ml dye + 0.05 ml fibrils, diluted with PBS to 1 ml; for identification effect on bovine insulin fibrils (fluorescence intensity): dye 0.2 mM, dye-insulin 0.025 mM, dye-insulin fibril 0.025 mM, FIG. 3A / FIG. 7", "protocol": "2) The bovine insulin fibrils were diluted with PBS to 0 μm, 1 μm, 3 μm, 5 μm, 10 μm, 20 μm and 30 μm respectively. Then the diluted samples were each added with 0.05 mL of […] (1 mM) solution, and tested in a fluorescence spectrometer for the fluorescence intensity (λex=440 nm). […] The results are shown in FIG. 1, where FIG. 1-A was the detection limit of QR on the bovine insulin fibrils; and FIG. 1-B was a linear interval for QR identification of the bovine insulin fibrils.\nQR (0.2 mM), QR-insulin (0.025 mM) and QR-insulin fibril (0.025 mM) were determined for fluorescence intensities respectively.\n(§1) 0.05 ml of each of QR, ThT, ThS and NR solutions was taken, then added with 0.05 ml of the bovine insulin fibrils, diluted with 0.9 ml of PBS to 1 ml, and then determined for the fluorescence intensity.\nThe fluorescence intensities of 4-(4-dimethylaminostyryl)quinoline (0.2 mM), 4-(4-dimethylaminostyryl)quinoline-insulin (0.025 mM) and 4-(4-dimethylaminostyryl)quinoline-insulin fibrils (0.025 mM) were determined respectively."}, "[2]": {"target": "insulin fibril (Bos taurus, UniProt P01317)", "sequence (P01317 25-54 limits assumed)": "as the sequence (P01317 25-54 limits assumed) above", "experiment": "Photobleaching experiment under ultraviolet light (365 nm)", "assay_type": "physicochemical, bovine", "conditions": "UV 365 nm, insulin fibril 0.025 mM, dyes 0.05 mm, measured every 30 minutes; FIG. 6", "description": "A photobleaching experiment was carried out under ultraviolet light (365 nm). An insulin fibril (0.025 mM) was mixed with QR, ThT, ThS and NR respectively, with the concentrations of all dyes being 0.05 mm. The mixtures were placed under an ultraviolet lamp (365 nm) and measured for fluorescence every 30 minutes."}, "[3]": {"target": "bovine insulin amyloid fibrils (Bos taurus, UniProt P01317)", "sequence (P01317 25-54 limits assumed)": "as above", "experiment": "Monitoring the kinetic process of bovine insulin fibrillation by fluorescence", "conditions": "0.5 mM insulin in NaCl/HCl pH 1.6, samples at different time points, QR 1 mM 0.05 mL; FIG. 3B", "protocol": "As the mechanism of amyloid fibril-related disease was still being explored, and the kinetic process of the amyloid fibrils might provide relevant information for the mechanism, the kinetic process of the formation of the bovine insulin amyloid fibrils was monitored with QR. […] Three duplicate samples were made for each group of samples, and all of the above samples were determined on a fluorescence spectrometer for fluorescence intensities."}, "[4]": {"target": "lysozyme fibrils (Gallus gallus, UniProt P00698)", "sequence (P00698 19-147)": "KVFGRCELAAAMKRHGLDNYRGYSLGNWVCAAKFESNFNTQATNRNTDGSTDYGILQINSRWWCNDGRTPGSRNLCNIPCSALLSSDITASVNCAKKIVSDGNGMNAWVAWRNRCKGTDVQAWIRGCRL", "experiment": "Fluorescence identification of lysozyme fibrils", "assay_type": "binding", "conditions": "lysozyme 0.1 mM fibrillated at 65° C. for 180 min; FIG. 3C", "protocol": "Formulation of a glycine/NaCl buffer solution: the pH value of the glycine/NaCl aqueous solution was adjusted to 2.0 with HCl, where the concentration of sodium chloride was 80 mM and the concentration of glycine was 70 mM.\nThe lysozyme (0.1 mM) was dissolved in a glycine/NaCl buffer solution for fibrillation at 65° C. under magnetic stirring at a rotation rate of 220 rmp for 180 min. The fluorescence intensities of QR, QR-lysozyme and QR-lysozyme fibrils were determined respectively."}, "[5]": {"target": "lysozyme amyloid fibrils (Gallus gallus, UniProt P00698)", "sequence (P00698 19-147)": "as above", "experiment": "Monitoring the kinetic process of lysozyme fibrillation by fluorescence", "conditions": "lysozyme 0.1 mM in glycine/NaCl pH 2.0, samples at different time points; FIG. 3D", "protocol": "The kinetic process of the formation of the lysozyme amyloid fibrils was monitored with QR. […] Three duplicate samples were made for each group of samples, and all of the above samples were determined on a fluorescence spectrometer for fluorescence intensities."}, "[6]": {"target": "T2, bovine insulin (Bos taurus, UniProt P01317)", "T2 sequence (P01317 25-54 limits assumed)": "as the sequence (P01317 25-54 limits assumed) above", "experiment": "Isothermal titration calorimetry (ITC) of dyes with bovine insulin", "assay_type": "binding", "conditions": "25° C., insulin 0.25 mM, dyes 0.01 mM, FIG. 4", "protocol": "Isothermal titration calorimetry (ITC): the bovine insulin was diluted to a final concentration of 0.25 mM, the QR, ThT, ThS, NR were each diluted to a final concentration of 0.01 mM, and then the aforementioned dyes were titrated with the bovine insulin at 25° C., where the dye was added dropwise into a sample chamber containing a solution of the bovine insulin through an automatically-controlled rotary syringe. At the same time, a blank test was carried out, where dye solutions with equal concentration and equal volume were added dropwise into ultra-pure water, and dilution heat was deducted to obtain a binding constant."}, "[7]": {"target": "T1, bovine insulin fibrils", "experiment": "QR replacement of a conventional probe bound to bovine insulin fibrils", "assay_type": "binding", "conditions": "ThS or NR bound first, then QR added, FIGS. 5B-5D", "protocol": "as §1\nSince the binding constant of binding between QR and the bovine insulin is the largest, ThT, ThS, and NR were first used to bind to the bovine insulin fibrils for fluorescence determination, then QR was added for a replacement reaction."}, "[8]": {"target": "T2, bovine insulin", "experiment": "Raman (SERS) study of the manner of binding between QR and bovine insulin", "conditions": "SERS on silver sol, 532 nm, QR 0.01 mM, bovine insulin 0.01 mM; FIG. 2", "protocol": "The manner of binding between QR and the bovine insulin was studied by using a Raman spectrometer with an excitation line of a laser model of 532 nm. First, a silver sol was synthesized as a SERS (surface-enhancement raman scattering) substrate. The synthesized silver nanoparticles were respectively added with the bovine insulin (0.01 mM), QR (0.01 mM) and a mixed sample of them, for detection."}},
  "data": [
    {"molecule": "Thioflavin S [ThS, reference compound]", "values": [
      {"measurement": "identification of bovine insulin fibril (fluorescence intensity, dye comparison)", "setting": "[1]; FIG. 5-A", "result": "could well identify the bovine insulin fibril"},
      {"measurement": "fluorescence intensity of dye + insulin fibrils with increase of the illumination time (photostability)", "setting": "[2]", "result": "decreased significantly"}
    ]},
    {"molecule": "Cc1ccc2c(c1)sc(-c1ccc(N(C)C)cc1)[n+]2C.[Cl-]", "note": "[ThT, Thioflavin T, reference compound]", "values": [
      {"measurement": "identification of bovine insulin fibril (fluorescence intensity, dye comparison)", "setting": "[1]; FIG. 5-A", "result": "could well identify the bovine insulin fibril"},
      {"measurement": "fluorescence intensity of dye + insulin fibrils with increase of the illumination time (photostability)", "setting": "[2]", "result": "decreased significantly"}
    ]},
    {"molecule": "CC[n+]1c(/C=C/c2ccc(N(C)C)cc2)ccc2ccccc21", "note": "[QR, quinaldine red]", "values": [
      {"measurement": "identification of bovine insulin fibril (fluorescence intensity, dye comparison)", "setting": "[1]; FIG. 5-A", "result": "could well identify the bovine insulin fibril"},
      {"measurement": "identification effect on bovine insulin fibrils (fluorescence intensity)", "setting": "[1]", "result": "good identification effect"},
      {"measurement": "linear range of fluorescence response to bovine insulin fibrils", "setting": "[1]; fibrils diluted with PBS to 0-30 μm, fluorescence spectrometer, FIG. 1", "result": "0-30 μm"},
      {"measurement": "fluorescence intensity compared with the other dyes", "setting": "[1]; red light region, FIG. 5-A", "result": "certain advantages of the fluorescence intensity in the red light region"},
      {"measurement": "detection of the dynamic process of bovine insulin fibrillation", "setting": "[3]", "result": "could well detect the dynamic process of bovine insulin fibrillation"},
      {"measurement": "identification effect on lysozyme fibrils (fluorescence intensity)", "setting": "[4]", "result": "good identification effect"},
      {"measurement": "detection of the dynamic process of lysozyme fibrillation", "setting": "[5]", "result": "could well detect the dynamic process of lysozyme fibrillation"},
      {"measurement": "binding constant of binding with the bovine insulin (comparison among dyes)", "setting": "[6]", "result": "largest binding constant"},
      {"measurement": "replacement of ThT, ThS, NR bound to bovine insulin fibrils", "setting": "[7]", "result": "replacement effect was obvious"},
      {"measurement": "fluorescence intensity of dye + insulin fibrils with increase of the illumination time (photostability)", "setting": "[2]", "result": "remained basically unchanged"},
      {"measurement": "Raman signal between 900-1100 cm-1", "setting": "[8]", "result": "the signal for QR-insulin was disappeared"}
    ]},
    {"molecule": "CCN(CC)c1ccc2nc3c4ccccc4c(=O)cc-3oc2c1", "note": "[NR, nile red, reference compound]", "values": [
      {"measurement": "identification of bovine insulin fibril (fluorescence intensity, dye comparison)", "setting": "[1]; FIG. 5-A", "result": "could well identify the bovine insulin fibril"},
      {"measurement": "fluorescence intensity of dye + insulin fibrils with increase of the illumination time (photostability)", "setting": "[2]", "result": "decreased significantly"}
    ]},
    {"molecule": "CN(C)c1ccc(C=Cc2ccnc3ccccc23)cc1", "note": "[4-(4-dimethylaminostyryl)quinoline]", "values": [
      {"measurement": "identification effect on bovine insulin fibrils (fluorescence intensity)", "setting": "[1]", "result": "good identification effect"}
    ]}
  ]
}
